{
  "source": "patent US9656953B2",
  "about": "“Inhibition of cell proliferation” (University of South Florida, priority 2005, dated 2017)",
  "key": {"SK-MEL-5 cells": {"tested_on": "SK-MEL-5 cells", "assay": "Soft agar assay, SK-MEL-5", "type": "cell-based", "description": "Soft Agar Assay. Soft agar assays were done in triplicate in 12-well plates (Corning, Corning N.Y.). First, the bottom layer of agar (0.6%) was allowed to solidify at room temperature. Next the top layer of agar was (0.3%) was mixed with 5,000 cells per well and the indicated drug. The drugs were added twice weekly in complete media to the agar wells. Colonies were quantified by staining with MTT (3-(4,5-Dimethylthiazol-2-yl)-2,5-diphenyltetrazolium bromide) 1 mg/mL for 1 hour at 37° C.\nExperiments were also carried out to examine the effect of 3a in inhibiting the adherence-independent growth of cancer cells in soft agar."}, "U2-OS cells": {"tested_on": "U2-OS cells", "assay": "BrdU incorporation, S-phase entry, U2-OS", "type": "cell-based", "conditions": "20 μM, 18 hours, Rb wild type", "description": "Proliferation assays. Bromodeoxyuridine (BrdU) labeling kits were obtained from Roche Biochemicals (Indianapolis, Ind.). Cells were plated in poly-D-lysine coated chamber slides at a density of 10,000 cells per well and rendered quiescent by serum starvation for 24 hours. Cells were then re-stimulated with serum in the presence or absence of the indicated drugs for 18 h. S-phase cells were visualized by microscopy and quantitated by counting 3 fields of 100 in quadruplicate.\nGiven the selectivity of 3a described in FIGS. 1 and 2 above for disrupting the Rb:Raf-1 interaction, it was examined if 3a can inhibit the proliferation of cells and whether such an inhibition required a functional Rb gene."}},
  "data": [
    {"smiles": "Cl.N=C(N)SCc1ccc(Cl)cc1Cl", "note": "[Compound 3a]", "values": [
      {"measurement": "adherence-independent growth in soft agar, SK-MEL-5", "setting": "SK-MEL-5 cells", "value": "significantly inhibited the growth"},
      {"measurement": "S-phase entry (BrdU), U2-OS", "setting": "U2-OS cells", "value": "inhibited S-phase entry"}
    ]}
  ]
}
